Laboratory results published in patent publication US20260248763A1 (BIO GENUINE (SHANGHAI) BIOTECH CO., LTD, priority 2023, published 2026).

These compounds were tested against T1, OTR (Homo sapiens, UniProt P30559) (assay: Ca2+ mobilization in cells stably expressing OTR (FLIPR, antagonist mode)). Conditions: OTR/HEK293 stably transfected cell line.
T1 construct: expressed in transfected cells; host or cells: OTR/HEK293 stably transfected cell line
T1 sequence (P30559 1-389): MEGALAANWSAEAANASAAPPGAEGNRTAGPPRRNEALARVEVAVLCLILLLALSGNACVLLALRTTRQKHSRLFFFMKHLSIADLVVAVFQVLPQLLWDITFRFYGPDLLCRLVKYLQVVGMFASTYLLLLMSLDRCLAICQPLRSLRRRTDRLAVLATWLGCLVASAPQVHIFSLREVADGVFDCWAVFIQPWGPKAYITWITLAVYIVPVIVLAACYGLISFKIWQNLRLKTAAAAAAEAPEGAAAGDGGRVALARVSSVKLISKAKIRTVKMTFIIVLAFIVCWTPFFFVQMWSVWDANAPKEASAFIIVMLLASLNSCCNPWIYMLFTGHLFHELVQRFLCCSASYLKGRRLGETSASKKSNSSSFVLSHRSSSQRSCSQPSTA
Assay type: cell-based
Excerpt: Test Example 1. Determination of the Effect of the Compound of the Present Disclosure on Ca^2+ Mobilization in Cells Stably Expressing OTR
To measure the antagonistic effect of the compound of the present disclosure on OTR activity expressed in the OTR/HEK293 stably transfected cell line.
• DMEM medium (Invitrogen, 11965) • F12 medium (Invitrogen, 11765) • Fetal bovine serum (Excell, FSP500) • Geneticin (Invitrogen, 10131) • Penicillin/Streptomycin (Invitrogen, SV30010) • Fluo-4 Direct kit (Invitrogen, F10471) • 384-well cell plate (Greiner, 781090) • 384-well compound plate (Greiner, 781280)
• FLIPR instrument (Molecular Device) • EHCO instrument (Labcyte) • Cell counter (Beckman, Vi-cell XR)
The cultured cells were washed twice with pre-heated DPBS and digested with appropriate amount of trypsin at 37° C. for 1 minute, and then appropriate amount of culture medium was added to terminate digestion. The cells were centrifuged at 1000 rpm for 5 minutes. The supernatant was gently discarded without disturbing the cell pellet at the bottom. The cells were resuspended in culture medium and 1 mL was taken out for cell counting and viability assessment using Vi-CELL™. The cells were diluted to 1×10^6 cells/mL (20,000 cells/20 μL) with culture medium, seeded into a 384-well cell plate and incubated at 37° C. with 5% CO2 for 16-20 h.
Formulation of 250 mM Probenecid solution: according to the kit instructions, 1 mL of FLIPR buffer salt solution was added to 77 mg of probenecid, prepared fresh just before use. Formulation of Fluo-4 Direct™ (2×, 8 μM) loading buffer: according to the kit instructions, the required amount of Fluo-4 Direct™ was taken out and thawed in advance, 10 mL of FLIPR buffer salt solution and 0.2 mL of 250 mM Probenecid solution were added to each tube, and the mixture was vortexed in the dark for >5 minutes, prepared fresh just before use.
Preparation of agonist reference compound plate: the agonist was diluted 3-fold in 10 points using ECHO, and 750 nL was transferred to the corresponding compound plate using ECHO.
Preparation of reference and test compound plates: the test compound was diluted 3-fold in 10 points with ECHO, and 900 nL was transferred to the corresponding compound plate; the reference compound was diluted 3-fold in 10 points with assay buffer salt solution, and 30 μL was transferred to the compound plate.
30 μL of assay buffer salt solution was added to the corresponding compound plate, and the mixture was centrifuged at 1000 rpm for 1 minute.
The cell plate prepared the day before was taken out of the incubator, and 20 μL of 2×Fluo-4 Direct™ buffer was added to each well, with a total volume of 40 μL.
The plate was incubated in an incubator at 37° C. with 5% CO2 for 50 minutes, and then placed at room temperature for 10 minutes.
The compound plate, cell plate, and pipette tips were placed into the instrument.
For the agonist reference compound plate: the FLIPR instrument software was run, 10 μL of the pre-determined concentration of agonist reference compound was added to the cell plate following the preset protocol, and the fluorescence signal was read. After reading, the data were exported to calculate the EC80 for each cell line, and the agonist at 6×EC80 concentration was prepared.
For the compound plate: the FLIPR instrument software was run, 10 μL of the pre-determined concentration of test compound and the reference compound were added to the cell plate following the preset protocol, and the fluorescence signal was read. 10 μL of the reference compound agonist at 6×EC80 concentration was added to the cell plate, and the fluorescence signal was read. For antagonist detection of the compound, the data were exported using the “Max-Min” and “Read 1 to Maximum allowed” methods in the software, and the data were fitted using Prism.

Compound | IC50 [nM]
CO/N=C1/C[C@@H](CO)N(C(=O)c2ccc(-c3cccc(C#N)c3C)c(OCC3CC3)n2)C1 [Example A0188, (S, Z)-3-(2-(Cyclopropylmethoxy)-6-(2-(hydroxymethyl)-4-(methoxyimino)pyrrolidine-1-carbonyl)pyridin-3-yl)-2-methylbenzonitrile] | 43.9
CO/N=C1/C[C@@H](CO)N(C(=O)c2ccc(-c3cccc(C#N)c3C)c3ncnn23)C1 [Example A0190, (S, Z)-3-(5-(2-(Hydroxymethyl)-4-(methoxyimino)pyrrolidine-1-carbonyl)-[1,2,4]triazolo[1,5-a]pyridin-8-yl)-2-methylbenzonitrile] | 1510
COCCNc1nc(C(=O)N2C/C(=N\OC)C[C@H]2CO)ccc1-c1cccc(C#N)c1C [Example A0197, (S, Z)-3-(6-(2-(Hydroxymethyl)-4-(methoxyimino)pyrrolidine-1-carbonyl)-2-((2-methoxyethyl)amino)pyridin-3-yl)-2-methylbenzonitrile] | 403
CO/N=C1/C[C@@H](CO)N(C(=O)c2ccc(-c3cccc(C#N)c3C)c(N3CCOCC3)n2)C1 [Example A0198, (S, Z)-3-(6-(2-(Hydroxymethyl)-4-(methoxyimino)pyrrolidine-1-carbonyl)-2-morpholinopyridin-3-yl)-2-methylbenzonitrile] | 967
CO/N=C1/C[C@@H](CO)N(C(=O)c2ccc(-c3cccc(C#N)c3C(F)F)cc2)C1 [Example A0204, 2-(Difluoromethyl)-3-(4-[(2S, 4Z)-2-(hydroxymethyl)-4-(methoxyimino)pyrrolidine-1-carbonyl]phenyl)benzonitrile] | 156
CO/N=C1/C[C@@H](CO)N(C(=O)c2ccc(-c3cccc(C#N)c3C)s2)C1 [Example A0212, 3-(5-[(2S, 4Z)-2-(Hydroxymethyl)-4-(methoxyimino)pyrrolidine-1-carbonyl]thien-2-yl)-2-methylbenzonitrile] | 384
CO/N=C1/C[C@@H](CO)N(C(=O)c2cc(OC)c(-c3cccc(C#N)c3C)cn2)C1 [Example A0216, 3-(6-[(2S, 4Z)-2-(Hydroxymethyl)-4-(methoxyimino)pyrrolidine-1-carbonyl]-4-methoxypyridin-3-yl)-2-methylbenzonitrile] | 198
CO/N=C1\C[C@@H](CO)N(C(=O)c2ccc(-c3cccc(C#N)c3C)c(OC)n2)C1 [Example A0222, 3-(6-[(2S, 4E)-2-(Hydroxymethyl)-4-(methoxyimino)pyrrolidine-1-carbonyl]-2-methoxypyridin-3-yl)-2-methylbenzonitrile] | 112
CO/N=C1/CC[C@@H](CO)N(C(=O)c2ccc(-c3cccc(C#N)c3C)cc2)C1 [Example A0225, (S, Z)-4′-(2-(Hydroxymethyl)-5-(methoxyimino)piperidine-1-carbonyl)-2-methyl-[1,1′-biphenyl]-3-carbonitrile] | 483
CO/N=C1\CCN(C(=O)c2ccc(-c3cccc(C#N)c3C)cc2)[C@H](CO)C1 [Example A0226, (S,E)-4′-(2-(Hydroxymethyl)-4-(methoxyimino)piperidine-1-carbonyl)-2-methyl-[1,1′-biphenyl]-3-carbonitrile] | 1050
CNC(=O)[C@@H]1C/C(=N/OC)CN1C(=O)c1ccc(-c2cccc(C#N)c2C)cc1 [Example A0228, (S, Z)-1-(3′-Cyano-2′-methyl-[1,1′-biphenyl]-4-carbonyl)-4-(methoxyimino)-N-methylpyrrolidine-2-carboxamide] | 432
CNC(=O)[C@@H]1C/C(=N\OC)CN1C(=O)c1ccc(-c2cccc(C#N)c2C)cc1 [Example A0232, (S, E)-1-(3′-Cyano-2′-methyl-[1,1′-biphenyl]-4-carbonyl)-4-(methoxyimino)-N-methylpyrrolidine-2-carboxamide] | 394
CO/N=C1\CC[C@@H](CO)N(C(=O)c2ccc(-c3cccc(C#N)c3C)cc2)C1 [Example A0234, (S, E)-4′-(2-(Hydroxymethyl)-5-(methoxyimino)piperidine-1-carbonyl)-2-methyl-[1,1′-biphenyl]-3-carbonitrile] | 242
